Data from patent US20230174649A1, “PHARMACEUTICAL COMPOSITIONS CONTAINING ANTI-CD47 ANTIBODIES” (I-MAB BIOPHARMA US LIMITED, priority 2020, published 2023).
Several values for one entry are separate records, joined by “and”; a condition that tells them apart may be missing. Equal entries are not always repeated.

Key:
Assay type in all cases: cell-based, Human
CD47 = assay: FACS analysis of expression level of CD47 on tumor cell surface; details: Toledo cells, 12 hours
Description: (§1) For FACS analysis, on the day of analysis (day 1), Toledo cells were seeded into 96 well plate and cultured at a density of 0.2×10^6 cells/well. Then the cells were treated with the selected small molecule therapeutic agents for 12 hours.
(§2) On day 2, cells were harvested, washed twice and then re-suspended in 100 uL FACS buffer subject to FACS analysis. For detection of the expression of calreticulin and CD47, cells were incubated with anti-calreticulin antibody and commercially available anti-CD47 antibody (BD Biosciences, Catalog number: 561249) in dark at 4° C. for 30 mins.
(§3) Then, the cells were subject to FACS analysis. Data was acquired and analyzed.

Calreticulin = assay: FACS analysis of expression level of calreticulin on tumor cell surface; details: Toledo cells, 12 hours
Description: as §1, §2, §3

Toledo Cells = assay: FACS-based phagocytosis assay, macrophages cocultured with Toledo cells
Description: FACS-based phagocytosis assays were performed to evaluate the phagocytic abilities of macrophages.
Toledo Cells (a tumor cell line, as a target) were labelled with CellTrace™ Far Red and plated into 96-well plate at a density of 0.15×10^6 cells/well for 12 hours. The Macrophages were prepared as discussed above and then labelled with CellTrace Violet. Next, the macrophages were added into the plate as an effector at an effector:target (Toledo) ratio of 1:3, giving a final density of macrophages at 0.05×10^6 cells/well. Macrophages and tumor cells were cocultured for 2-6 h at 37° C. in the presence of the indicated treatments (small molecule therapeutic agents, CD47 antibody, CD20 antibody or combinations). The incubation time depending on the phagocytosis rate, expecting phagocytosis of 5-20% cells.
Then, cells were acquired and data were analyzed.

macrophages = assay: Macrophage Viability Assay (CellTiter-Glo); details: for Macrophage viability (CellTiter-Glo Luminescent Cell Viability Assay): 16 hours, three replicate lines
Description: Then, the monocytes isolated by MACS were subsequently cultured in fresh complete medium supplemented with recombinant human granulocyte-macrophage colony-stimulating factor GM-CSF (50 ng/ml) and human recombinant IL-4 (35 ng/ml) to activate differentiated macrophages. After 6 days of culture (on day 7), cells were harvested, pooled together and counted for next use.
The cells from Example 2 were plated into a 96-well flat bottom plate at a density of 0.05×10^6 cells/well. After 2 hours of incubation, the macrophages were well attached to the plate. Then selected small molecule therapeutic agents were added to the well and cocultured for 16 hours. On day 8, macrophage viability was assessed by CellTiter-Glo® Luminescent Cell Viability Assay, according to the manufacture's instruction.

Structure (SMILES): Nc1cccc2c1CN(C1CCC(=O)NC1=O)C2=O (centres unmarked) [Lenalidomide]
- Mean Fluorescence Intensity (MFI) CD47 (CD47; 0.008 uM): 8706
- Mean Fluorescence Intensity (MFI) CD47 (CD47; 0.04 uM): 8881
- Mean Fluorescence Intensity (MFI) CD47 (CD47; 0.2 uM): 8730
- Mean Fluorescence Intensity (MFI) CD47 (CD47; 1 uM): 8985
- Mean Fluorescence Intensity (MFI) CD47 (CD47; 5 uM): 8443
- Mean Fluorescence Intensity (MFI) Calreticulin (Calreticulin; 0.008 uM): 69.3
- Mean Fluorescence Intensity (MFI) Calreticulin (Calreticulin; 0.04 uM): 70.1
- Mean Fluorescence Intensity (MFI) Calreticulin (Calreticulin; 0.2 uM): 73.4
- Mean Fluorescence Intensity (MFI) Calreticulin (Calreticulin; 1 uM): 75.6
- Mean Fluorescence Intensity (MFI) Calreticulin (Calreticulin; 5 uM): 75.2
- macrophage phagocytosis (untreated = 1.00) (Toledo Cells; Cpd 0.0016 uM, T4J = 0, R = 0): 1.02
- macrophage phagocytosis (untreated = 1.00) (Toledo Cells; Cpd 0.0016 uM, T4J = 0, R = 0.01 ug/ml): 1.46
- macrophage phagocytosis (untreated = 1.00) (Toledo Cells; Cpd 0.0016 uM, T4J = 0.1 ug/ml, R = 0): 2.48
- macrophage phagocytosis (untreated = 1.00) (Toledo Cells; Cpd 0.0016 uM, T4J = 0.1 ug/ml, R = 0.01 ug/ml): 3.10
- macrophage phagocytosis (untreated = 1.00) (Toledo Cells; Cpd 0.008 uM, T4J = 0, R = 0): 1.03
- macrophage phagocytosis (untreated = 1.00) (Toledo Cells; Cpd 0.008 uM, T4J = 0, R = 0.01 ug/ml): 1.47
- macrophage phagocytosis (untreated = 1.00) (Toledo Cells; Cpd 0.008 uM, T4J = 0.1 ug/ml, R = 0): 2.57
- macrophage phagocytosis (untreated = 1.00) (Toledo Cells; Cpd 0.008 uM, T4J = 0.1 ug/ml, R = 0.01 ug/ml): 3.04
- macrophage phagocytosis (untreated = 1.00) (Toledo Cells; Cpd 0.04 uM, T4J = 0, R = 0): 1.08
- macrophage phagocytosis (untreated = 1.00) (Toledo Cells; Cpd 0.04 uM, T4J = 0, R = 0.01 ug/ml): 1.46
- macrophage phagocytosis (untreated = 1.00) (Toledo Cells; Cpd 0.04 uM, T4J = 0.1 ug/ml, R = 0): 2.56
- macrophage phagocytosis (untreated = 1.00) (Toledo Cells; Cpd 0.04 uM, T4J = 0.1 ug/ml, R = 0.01 ug/ml): 3.06
- macrophage phagocytosis (untreated = 1.00) (Toledo Cells; Cpd 0.2 uM, T4J = 0, R = 0): 0.96
- macrophage phagocytosis (untreated = 1.00) (Toledo Cells; Cpd 0.2 uM, T4J = 0, R = 0.01 ug/ml): 1.51
- macrophage phagocytosis (untreated = 1.00) (Toledo Cells; Cpd 0.2 uM, T4J = 0.1 ug/ml, R = 0): 2.61
- macrophage phagocytosis (untreated = 1.00) (Toledo Cells; Cpd 0.2 uM, T4J = 0.1 ug/ml, R = 0.01 ug/ml): 3.04
- macrophage phagocytosis (untreated = 1.00) (Toledo Cells; Cpd 1 uM, T4J = 0, R = 0): 1.01
- macrophage phagocytosis (untreated = 1.00) (Toledo Cells; Cpd 1 uM, T4J = 0, R = 0.01 ug/ml): 1.47
- macrophage phagocytosis (untreated = 1.00) (Toledo Cells; Cpd 1 uM, T4J = 0.1 ug/ml, R = 0): 2.62
- macrophage phagocytosis (untreated = 1.00) (Toledo Cells; Cpd 1 uM, T4J = 0.1 ug/ml, R = 0.01 ug/ml): 3.07
- phagocytic ability of macrophages (Toledo Cells; triple combination: T4J, Rituximab and the small molecule): does not show the synergistic effects
- Macrophage viability (CellTiter-Glo Luminescent Cell Viability Assay) (macrophages; Cpd 0.002 uM): 5972 and 5872 and 5776
- Macrophage viability (CellTiter-Glo Luminescent Cell Viability Assay) (macrophages; Cpd 0.008 uM): 5992 and 5996 and 6180
- Macrophage viability (CellTiter-Glo Luminescent Cell Viability Assay) (macrophages; Cpd 0.04 uM): 6152 and 6132 and 5892
- Macrophage viability (CellTiter-Glo Luminescent Cell Viability Assay) (macrophages; Cpd 0.2 uM): 6216 and 6088 and 6456
- Macrophage viability (CellTiter-Glo Luminescent Cell Viability Assay) (macrophages; Cpd 1 uM): 6016 and 6108 and 6088
- Macrophage viability (CellTiter-Glo Luminescent Cell Viability Assay) (macrophages; Cpd 5 uM): 5840 and 6236 and 6108
- Macrophage viability (CellTiter-Glo Luminescent Cell Viability Assay) (macrophages; Cpd 25 uM): 5432 and 5752 and 5744
- Macrophage viability (CellTiter-Glo Luminescent Cell Viability Assay) (macrophages; Cpd 50 uM): 5208 and 5124 and 5644
- toxicity to macrophages (macrophages; dose as high as 50 μM): showed toxicity
- toxicity to macrophages (macrophages; dose lower than 10 μM): little toxic
